Data published in DBAASP.
In brackets after ≈: the same amount, converted by molar mass. Each block holds one compound with its values, some of them ahead of it.

What was measured:
Test in all cases: ≥ marks a high value that may be exact or a test limit, other limits are often not marked, values filed in µg/mL are converted to µM
[1] = tested on: Staphylococcus aureus ATCC 6538P
Pseudomonas aeruginosa = tested on: Pseudomonas aeruginosa
Escherichia coli JM109 = tested on: Escherichia coli JM109
Staphylococcus aureus = tested on: Staphylococcus aureus
[2] = tested on: Staphylococcus aureus ATCC 2592
Shigella dysenteriae = tested on: Shigella dysenteriae
[3] = tested on: Bacillus subtilis ATCC 6633
[4] = tested on: Candida albicans ATCC 2002
[5] = tested on: Escherichia coli ATCC 25922
[6] = tested on: Pseudomonas aeruginosa ATCC 27853
Bacillus subtilis = tested on: Bacillus subtilis
[7] = tested on: Enterococcus faecalis NCTC 12697
[8] = tested on: Candida albicans F7-39/IDE99
Escherichia coli B = tested on: Escherichia coli B
Bacillus subtilis 168 = tested on: Bacillus subtilis 168
[9] = tested on: Pseudomonas aeruginosa CMCCB 10104
[10] = tested on: Klebsiella pneumoniae ATCC 13883
[11] = tested on: Enterococcus faecalis ATCC 29212
[12] = tested on: Staphylococcus aureus ATCC 25923
Escherichia coli = tested on: Escherichia coli
[13] = tested on: Salmonella enterica subsp. enterica serovar Typhimurium ATCC 14028
[14] = tested on: Streptococcus pyogenes ATCC 19615

MIC [1]: 1.73 µM (≈ 2 µg/mL) | MIC (Pseudomonas aeruginosa): 3.46 µM (≈ 4 µg/mL) | MIC (Escherichia coli JM109): 2.6 µM (≈ 3 µg/mL) | MIC (Staphylococcus aureus): 17.3 µM (≈ 20 µg/mL)
SMILES: CC[C@H](C)[C@H](NC(=O)[C@H](C)NC(=O)[C@H](CC(C)C)NC(=O)[C@H](CC(C)C)NC(=O)[C@H](Cc1c[nH]c2ccccc12)NC(=O)[C@H](C)N)C(=O)N[C@@H](CCCN=C(N)N)C(=O)N[C@@H](CCCN=C(N)N)C(=O)N[C@@H](CCCN=C(N)N)C(N)=O [AWLLAIRRR]

MIC [2]: 3.09 µM (≈ 4.7 µg/mL) | MIC (Shigella dysenteriae): 12.3 µM (≈ 18.7 µg/mL) | MIC [3]: 6.16 µM (≈ 9.37 µg/mL) | MIC [4]: 24.6 µM (≈ 37.5 µg/mL) | MIC [5]: 46 µM (≈ 70 µg/mL)
SMILES: CC[C@H](C)[C@H](NC(=O)[C@@H]1CCCN1C(=O)[C@H](Cc1ccccc1)NC(=O)[C@@H](N)Cc1ccccc1)C(=O)N[C@H](C(=O)NCC(=O)N[C@@H](CCCCN)C(=O)N[C@@H](CCCN=C(N)N)C(=O)N[C@@H](CC(C)C)C(=O)N[C@@H](Cc1ccc(O)cc1)C(=O)NCC(=O)N[C@@H](CC(C)C)C(=O)N[C@@H](CC(C)C)C(N)=O)C(C)C [FFPIVGKRLYGLL]

MIC [6]: 8 µM (≈ 20.6 µg/mL) | MIC (Bacillus subtilis): ≥ 38.9 µM | MIC [2]: 4.86 µM (≈ 12.5 µg/mL) | MIC [4]: 2.45 µM (≈ 6.3 µg/mL) | MIC [5]: 4.86 µM (≈ 12.5 µg/mL)
SMILES: CC[C@H](C)[C@H](NC(=O)[C@H](C)NC(=O)CNC(=O)[C@@H](NC(=O)[C@@H](NC(=O)[C@@H](NC(=O)CNC(=O)[C@@H](NC(=O)[C@@H](NC(=O)[C@@H](NC(=O)[C@H](C)NC(=O)[C@H](Cc1ccccc1)NC(=O)[C@H](CC(C)C)NC(=O)[C@H](CCCN=C(N)N)NC(=O)[C@H](CCCN=C(N)N)NC(=O)[C@H](CC(C)C)NC(=O)CNC(=O)CNC(=O)[C@@H](NC(=O)[C@@H](N)Cc1ccccc1)[C@@H](C)CC)[C@@H](C)O)C(C)C)C(C)C)[C@@H](C)O)C(C)C)C(C)C)C(=O)N[C@@H](CC(N)=O)C(=O)N[C@@H](CCCCN)C(=O)N[C@@H](CC(C)C)C(=O)NCC(=O)NCC(=O)NCC(=O)O [FIGGLRRLFATVVGTVVGAINKLGGG]

MIC [7]: ≥ 512 µM
SMILES: CC(C)C[C@H](NC(=O)[C@H](C)NC(=O)[C@H](Cc1c[nH]c2ccccc12)NC(=O)[C@H](CCCCN)NC(=O)[C@@H]1CCCN1C(=O)[C@H](CC(C)C)NC(=O)[C@@H](N)Cc1ccccc1)C(=O)N[C@@H](CCCCN)C(=O)N[C@@H](Cc1c[nH]c2ccccc12)C(=O)N[C@@H](C)C(=O)N[C@@H](C)C(=O)N[C@@H](CCCCN)C(N)=O [FLPKWALKWAAK]

MIC [8]: 4.3 µM (≈ 6.4 µg/mL) | MIC (Pseudomonas aeruginosa): 11.3 µM (≈ 16.8 µg/mL) | MIC (Escherichia coli B): 2.3 µM (≈ 3.42 µg/mL) | MIC (Bacillus subtilis 168): 1.3 µM (≈ 1.93 µg/mL) | MIC (Staphylococcus aureus): 5 µM (≈ 7.44 µg/mL)
SMILES: CSCC[C@H](NC(=O)[C@H](CCCCN)NC(=O)[C@H](Cc1ccccc1)NC(=O)CN)C(=O)N[C@@H](C)C(=O)N[C@@H](CC(C)C)C(=O)N[C@@H](CCCCN)C(=O)N[C@@H](CC(C)C)C(=O)N[C@@H](CC(C)C)C(=O)N[C@@H](CCCCN)C(=O)N[C@@H](CCCCN)C(=O)N[C@H](C(=O)N[C@@H](CC(C)C)C(N)=O)C(C)C [GFKMALKLLKKVL]

MIC [8]: 5.3 µM (≈ 7.67 µg/mL) | MIC (Pseudomonas aeruginosa): 30 µM (≈ 43.4 µg/mL) | MIC (Escherichia coli B): 2.7 µM (≈ 3.91 µg/mL) | MIC (Bacillus subtilis 168): 1.2 µM (≈ 1.74 µg/mL) | MIC (Staphylococcus aureus): 28.3 µM (≈ 41 µg/mL)
SMILES: CC[C@H](C)[C@H](NC(=O)[C@H](CC(C)C)NC(=O)[C@H](Cc1cnc[nH]1)NC(=O)CNC(=O)[C@H](CC(C)C)NC(=O)[C@@H](NC(=O)[C@H](CCCCN)NC(=O)[C@H](CCCCN)NC(=O)[C@H](Cc1c[nH]c2ccccc12)NC(=O)[C@H](CCCCN)NC(=O)CN)[C@@H](C)CC)C(=O)N[C@@H](CCCN=C(N)N)C(N)=O [GKWKKILGHLIR]

MIC [8]: 6.6 µM (≈ 9.59 µg/mL) | MIC (Pseudomonas aeruginosa): 42.1 µM (≈ 61.2 µg/mL) | MIC (Escherichia coli B): 2.5 µM (≈ 3.63 µg/mL) | MIC (Bacillus subtilis 168): 1 µM (≈ 1.45 µg/mL) | MIC (Staphylococcus aureus): 8.1 µM (≈ 11.8 µg/mL)
SMILES: CC[C@H](C)[C@H](NC(=O)[C@H](Cc1cnc[nH]1)NC(=O)[C@H](CCCCN)NC(=O)[C@H](CC(C)C)NC(=O)[C@H](CC(C)C)NC(=O)[C@H](CO)NC(=O)[C@H](CCSC)NC(=O)[C@H](Cc1c[nH]c2ccccc12)NC(=O)[C@H](CCCCN)NC(=O)CN)C(=O)N[C@@H](CC(C)C)C(=O)N[C@@H](CCCCN)C(N)=O [GKWMSLLKHILK]

MIC [2]: 2.33 µM (≈ 4.5 µg/mL) | MIC [9]: 4.65 µM (≈ 9 µg/mL) | MIC [4]: 2.33 µM (≈ 4.5 µg/mL) | MIC [5]: 4.65 µM (≈ 9 µg/mL)
SMILES: CC[C@H](C)[C@H](N)C(=O)N[C@@H](CC(C)C)C(=O)NCC(=O)N1CCC[C@H]1C(=O)N[C@H](C(=O)N[C@H](C(=O)N[C@@H](CO)C(=O)N[C@H](C(=O)N[C@H](C(=O)NCC(=O)NCC(=O)N[C@H](C(=O)N[C@@H](CC(C)C)C(=O)NCC(=O)NCC(=O)N[C@@H](CC(C)C)C(=O)N[C@@H](CC(C)C)C(=O)N[C@@H](CCCCN)C(=O)N[C@@H](CC(N)=O)C(=O)N[C@@H](CC(C)C)C(N)=O)C(C)C)[C@@H](C)CC)[C@@H](C)O)[C@@H](C)CC)C(C)C [ILGPVISTIGGVLGGLLKNL]

MIC [3]: 1.05 µM (≈ 2 µg/mL) | MIC (Escherichia coli JM109): 4.19 µM (≈ 8 µg/mL)
SMILES: CC[C@H](C)[C@H](N)C(=O)N[C@@H](CC(N)=O)C(=O)N[C@@H](Cc1c[nH]c2ccccc12)C(=O)N[C@@H](CCCCN)C(=O)N[C@@H](CCCCN)C(=O)N[C@H](C(=O)N[C@@H](C)C(=O)N[C@@H](CCC(=O)O)C(=O)N[C@H](C(=O)NCC(=O)N[C@@H](CCCCN)C(=O)N[C@@H](CCC(N)=O)C(=O)N[C@H](C(=O)N[C@@H](CC(C)C)C(=O)N[C@@H](CO)C(=O)N[C@@H](C)C(=O)N[C@@H](CC(C)C)C(N)=O)C(C)C)[C@@H](C)CC)[C@@H](C)CC [INWKKIAEIGKQVLSAL]

MIC [6]: 100 µM (≈ 222 µg/mL) | MIC [10]: ≥ 200 µM | MIC (Bacillus subtilis): ≥ 100 µM | MIC [11]: > 200 µM | MIC [12]: 100 µM (≈ 222 µg/mL) | MIC (Escherichia coli): 100 µM (≈ 222 µg/mL) | MIC [13]: > 200 µM | MIC [14]: ≥ 200 µM
SMILES: CC[C@H](C)[C@H](NC(=O)[C@@H]1CCCN1C(=O)[C@H](CC(C)C)NC(=O)[C@@H](N)CC(C)C)C(=O)N[C@H](C(=O)NCC(=O)N[C@@H](CC(N)=O)C(=O)N[C@@H](CC(C)C)C(=O)N[C@@H](CC(C)C)C(=O)N[C@@H](CCCCN)C(=O)N[C@@H](CO)C(=O)N[C@@H](CC(C)C)C(=O)N[C@@H](CC(C)C)C(=O)NCC(=O)N[C@@H](C)C(=O)N[C@@H](CCCCN)C(=O)N[C@@H](CCCN=C(N)N)C(=O)N[C@@H](CCCCN)C(=O)N[C@@H](CCCN=C(N)N)C(=O)N[C@@H](C)C(=O)NCC(N)=O)C(C)C [LLPIVGNLLKSLLGAKRKRAG]

MIC (Bacillus subtilis): ≥ 48.6 µM | MIC [2]: ≥ 48.6 µM | MIC [4]: 4.56 µM (≈ 9.38 µg/mL) | MIC [5]: 9.12 µM (≈ 18.7 µg/mL)
SMILES: CC(C)C[C@H](NC(=O)[C@H](CCCCN)NC(=O)[C@H](CCCN=C(N)N)NC(=O)[C@H](Cc1c[nH]c2ccccc12)NC(=O)[C@H](Cc1c[nH]c2ccccc12)NC(=O)[C@H](CCCCN)NC(=O)[C@H](CCCCN)NC(=O)[C@H](Cc1c[nH]c2ccccc12)NC(=O)[C@H](CCCN=C(N)N)NC(=O)[C@H](CCCCN)NC(=O)[C@@H](N)C(C)C)C(=O)N[C@@H](CCCCN)C(=O)N[C@@H](CCCCN)C(=O)N[C@@H](CO)C(=O)N[C@H](C(N)=O)C(C)C [VKRWKKWWRKLKKSV]

MIC [6]: > 100 µM | MIC [10]: ≥ 100 µM | MIC (Bacillus subtilis): ≥ 100 µM | MIC [11]: > 100 µM | MIC [12]: > 100 µM | MIC (Escherichia coli): > 100 µM | MIC [13]: > 100 µM | MIC [14]: ≥ 100 µM
SMILES: CC(C)C[C@H](NC(=O)[C@H](Cc1c[nH]c2ccccc12)NC(=O)[C@H](CCC(N)=O)NC(=O)[C@@H](N)C(C)C)C(=O)N[C@@H](CCC(=O)O)C(=O)N[C@@H](CCC(N)=O)C(=O)N[C@@H](CCC(N)=O)C(=O)N[C@H](C(=O)N[C@@H](C)C(=O)N[C@@H](CCCCN)C(=O)N[C@@H](CCCN=C(N)N)C(=O)N[C@@H](CCCN=C(N)N)C(=O)N[C@H](C(=O)N[C@@H](CCCCN)C(=O)N[C@@H](CCCN=C(N)N)C(=O)O)[C@@H](C)O)C(C)C [VQWLEQQVAKRRTKR]
